Reference: publication PMC4752590, “Reciprocal effects of capsaicin and menthol on thermosensation through regulated activities of TRPV1 and TRPM8” (The Journal of Physiological Sciences : JPS, 2015)

Legend:
[1] = biological target: T1, hTRPM8 (transient receptor potential melastatin 8) (Homo sapiens, UniProt Q7Z2W7); assay: whole-cell patch clamp in HEK293T; inhibition of […] menthol-evoked current; format: cell-based
T1 construct: gene TRPM8; Full-length

[2] = biological target: T2, hTRPV1 (transient receptor potential vanilloid 1) (Homo sapiens, UniProt Q8NER1); assay: whole-cell patch clamp in HEK293T; inhibition of […] capsaicin-evoked current; format: cell-based
T2 construct: gene TRPV1; Full-length
T2 sequence (Q8NER1 whole entry): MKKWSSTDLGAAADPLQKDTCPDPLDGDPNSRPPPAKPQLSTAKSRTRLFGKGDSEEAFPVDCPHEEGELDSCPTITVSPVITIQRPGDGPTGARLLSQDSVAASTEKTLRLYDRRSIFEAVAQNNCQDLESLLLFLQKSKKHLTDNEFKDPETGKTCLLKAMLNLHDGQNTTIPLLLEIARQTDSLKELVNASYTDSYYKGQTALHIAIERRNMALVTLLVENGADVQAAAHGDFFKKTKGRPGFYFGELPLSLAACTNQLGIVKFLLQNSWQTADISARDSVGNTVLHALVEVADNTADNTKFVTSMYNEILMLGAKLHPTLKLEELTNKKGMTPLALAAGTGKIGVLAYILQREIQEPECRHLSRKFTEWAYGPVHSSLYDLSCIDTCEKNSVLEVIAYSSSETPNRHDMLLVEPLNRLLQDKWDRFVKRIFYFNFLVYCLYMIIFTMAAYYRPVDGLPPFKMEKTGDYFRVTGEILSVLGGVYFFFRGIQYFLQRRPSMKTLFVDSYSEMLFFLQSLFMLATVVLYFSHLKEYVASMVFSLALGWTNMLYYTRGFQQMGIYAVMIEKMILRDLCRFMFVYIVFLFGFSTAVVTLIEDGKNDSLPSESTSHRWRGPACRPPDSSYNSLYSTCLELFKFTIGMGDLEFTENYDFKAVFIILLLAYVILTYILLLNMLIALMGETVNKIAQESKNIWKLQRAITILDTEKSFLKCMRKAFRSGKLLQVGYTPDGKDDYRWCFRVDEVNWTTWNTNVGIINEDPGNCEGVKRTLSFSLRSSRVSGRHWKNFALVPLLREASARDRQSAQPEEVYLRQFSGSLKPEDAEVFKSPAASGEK

T1 sequence (Q7Z2W7 whole entry): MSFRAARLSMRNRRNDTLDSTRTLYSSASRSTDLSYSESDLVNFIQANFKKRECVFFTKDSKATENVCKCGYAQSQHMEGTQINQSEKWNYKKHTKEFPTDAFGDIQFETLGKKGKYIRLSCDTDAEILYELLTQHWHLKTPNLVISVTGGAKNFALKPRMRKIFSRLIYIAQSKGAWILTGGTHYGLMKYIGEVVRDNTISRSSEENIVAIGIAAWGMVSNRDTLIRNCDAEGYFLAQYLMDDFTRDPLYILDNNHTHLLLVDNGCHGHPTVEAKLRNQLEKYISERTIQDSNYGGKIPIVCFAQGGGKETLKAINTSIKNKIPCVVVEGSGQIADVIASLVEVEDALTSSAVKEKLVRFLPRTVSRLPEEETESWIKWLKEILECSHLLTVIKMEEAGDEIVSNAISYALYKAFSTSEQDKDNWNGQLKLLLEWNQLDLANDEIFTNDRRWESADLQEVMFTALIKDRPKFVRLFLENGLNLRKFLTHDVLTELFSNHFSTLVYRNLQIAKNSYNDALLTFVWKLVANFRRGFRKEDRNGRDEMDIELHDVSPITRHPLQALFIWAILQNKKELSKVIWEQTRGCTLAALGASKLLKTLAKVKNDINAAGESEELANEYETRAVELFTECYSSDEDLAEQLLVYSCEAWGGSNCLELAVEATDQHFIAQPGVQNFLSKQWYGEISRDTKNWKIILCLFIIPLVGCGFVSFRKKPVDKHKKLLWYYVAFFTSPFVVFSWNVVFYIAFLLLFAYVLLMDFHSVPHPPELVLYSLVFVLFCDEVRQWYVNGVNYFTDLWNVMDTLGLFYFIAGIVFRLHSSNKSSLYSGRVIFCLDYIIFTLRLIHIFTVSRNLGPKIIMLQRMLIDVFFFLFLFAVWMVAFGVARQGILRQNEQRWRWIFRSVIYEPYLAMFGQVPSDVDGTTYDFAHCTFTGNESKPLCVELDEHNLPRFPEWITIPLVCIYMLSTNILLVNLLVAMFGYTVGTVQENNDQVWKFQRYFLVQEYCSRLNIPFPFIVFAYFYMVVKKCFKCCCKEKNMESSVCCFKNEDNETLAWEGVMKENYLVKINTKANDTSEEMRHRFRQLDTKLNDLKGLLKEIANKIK

Row | SMILES | IC50 [1] [µM] | IC50 [2] [µM]
1 | COc1cc(CNC(=O)CCCC/C=C/C(C)C)ccc1O [capsaicin] | 39.9 ± 6.4 | –
2 | CC1CCC(C(C)C)C(O)C1 (centres unmarked) [menthol] | – | 1200 ± 200
